Like-named read-outs stand apart in the source and are kept apart here. Marks after values point to notes of the source that are not given here.
Assay: LogP by HPLC on reversed phase columns (EEC directive 79/831 Annex V.A8)
Type: physicochemical
Method: [table] If more than one Log P value is available within the same method, all the values are given and separated by “+”. […] Lambda-max-values were determined using UV-spectra from 200 nm to 400 nm and the peak values of the chromatographic signals.

[1] = method [a]: LC-UV, acidic range, 0.1% formic acid in water and acetonitrile as eluent
[2] = reversed phase HPLC column, method [a]: LC-UV, acidic range, 0.1% formic acid in water and acetonitrile as eluent, read-out: LogP

SMILES: OC(Cn1cncn1)(c1ccc(F)cc1F)C1(Oc2cc(F)c(F)c(F)c2)CC1 (racemic) [Example I-05]
- LogP [1]: 3.44^[a]

SMILES: OC(Cn1cncn1)(c1ccc(F)cc1F)C1(Oc2c(Cl)ccc(Cl)c2Cl)CC1 (racemic) [Example I-06]
- LogP [1]: 4.19^[a]

SMILES: OC(Cn1cncn1)(c1ccc(F)cc1F)C1(Oc2c(Cl)cc(Cl)cc2Cl)CC1 (racemic) [Example I-07]
- LogP [1]: 4.49^[a]

SMILES: OC(Cn1cncn1)(c1ccc(F)cc1F)C1(Oc2c(F)ccc(Cl)c2F)CC1 (racemic) [Example I-08]
- LogP [1]: 3.39^[a]

SMILES: OC(Cn1cncn1)(c1ccc(F)cc1F)C1(Oc2c(Cl)cc(OC(F)(F)F)cc2Cl)CC1 (racemic) [Example I-09]
- LogP [1]: 4.62^[a]

SMILES: OC(Cn1cncn1)(c1ccc(F)cc1F)C1(Oc2c(Cl)cc(C(F)(F)F)cc2Cl)CC1 (racemic) [Example I-10]
- LogP [1]: 4.46^[a]

SMILES: OC(Cn1cncn1)(c1ccc(F)cc1F)C1(Oc2c(Cl)cc(SC(F)(F)F)cc2Cl)CC1 (racemic) [Example I-11]
- LogP [1]: 4.97^[a]

SMILES: OC(Cn1cncn1)(c1ccc(F)cc1F)C1(Oc2c(Cl)cc(Br)cc2Cl)CC1 (racemic) [Example I-12]
- LogP [1]: 4.62^[a]

SMILES: OC(Cn1cncn1)(c1ccc(F)cc1F)C1(Oc2c(F)ccc(F)c2F)CC1 (racemic) [Example I-13]
- LogP [1]: 3.14^[a]

SMILES: COC(Cn1cncn1)(c1ccc(F)cc1F)C1(Oc2c(F)ccc(F)c2F)CC1 (racemic) [Example I-14]
- LogP [1]: 3.50^[a]

SMILES: COC(Cn1cncn1)(c1ccc(F)cc1F)C1(Oc2c(Cl)ccc(Cl)c2Cl)CC1 (racemic) [Example I-15]
- LogP [1]: 4.46^[a]

SMILES: OC(Cn1cncn1)(c1ccc(F)cc1F)C1(Oc2c(Cl)cc(F)cc2Cl)CC1 (racemic) [Example I-16]
- LogP [1]: 3.94^[a]

SMILES: COC(Cn1cncn1)(c1ccc(F)cc1F)C1(Oc2c(F)ccc(Cl)c2F)CC1 (racemic) [Example I-17]
- LogP [1]: 3.85^[a]

SMILES: COC(Cn1cncn1)(c1ccc(F)cc1F)C1(Oc2c(Cl)cc(OC(F)(F)F)cc2Cl)CC1 (racemic) [Example I-18]
- LogP [1]: 4.87^[a]

SMILES: OC(Cn1cncn1)(c1ccc(Cl)cc1F)C1(Oc2c(F)cc(Cl)cc2F)CC1 (racemic) [Example I-23]
- LogP [1]: 4.01^[a]

SMILES: OC(Cn1cncn1)(c1ccc(Cl)cc1F)C1(Oc2c(F)cc(F)cc2F)CC1 (racemic) [Example I-24]
- LogP [1]: 3.51^[a]

SMILES: COC(Cn1cncn1)(c1ccc(Cl)cc1F)C1(Oc2c(F)cc(Cl)cc2F)CC1 (racemic) [Example I-25]
- LogP [1]: 4.41^[a]

SMILES: COC(Cn1cncn1)(c1ccc(Cl)cc1F)C1(Oc2c(F)cc(F)cc2F)CC1 (racemic) [Example I-26]
- LogP [1]: 3.97^[a]

SMILES: OC(Cn1cncn1)(c1ccc(F)cc1F)C1(Oc2ccc(F)c(F)c2F)CC1 (racemic) [Example I-27]
- LogP [1]: 3.30^[a]

SMILES: OC(Cn1cncn1)(c1ccc(F)cc1F)C1(Oc2cc(F)c(F)cc2F)CC1 (racemic) [Example I-28]
- LogP [1]: 3.17^[a]

SMILES: OC(Cn1cncn1)(c1ccc(F)cc1F)C1(Oc2c(F)ccc(F)c2Cl)CC1 (racemic) [Example I-29]
- LogP [1]: 3.42^[a]

SMILES: OC(Cn1cncn1)(c1ccc(F)cc1F)C1(Oc2cc(F)c(Br)c(F)c2)CC1 (racemic) [Example I-30]
- LogP [1]: 3.85^[a]

SMILES: Fc1ccc(C2(C3(Oc4c(F)cc(Cl)cc4F)CC3)CO2)c(F)c1 (racemic) [Example V-02]
- LogP [1]: 4.59^[a]

SMILES: Fc1ccc(C2(C3(Oc4c(F)cc(Br)cc4F)CC3)CO2)c(F)c1 (racemic) [Example V-03]
- LogP [1]: 4.86
- LogP (method [b]: LC-UV, neutral range, 0.001 molar ammonium acetate solution in water and acetonitrile as eluent): 4.87

SMILES: Fc1ccc(C2(C3(Oc4cc(F)c(F)c(F)c4)CC3)CO2)c(F)c1 (racemic) [Example V-04]
- LogP [1]: 4.64^[a]

SMILES: Fc1ccc(C2(C3(Oc4c(Cl)cc(OC(F)(F)F)cc4Cl)CC3)CO2)c(F)c1 (racemic) [Example V-05]
- LogP [1]: 5.62^[a]

SMILES: Fc1ccc(C2(C3(Oc4c(F)ccc(Cl)c4F)CC3)CO2)c(F)c1 (racemic) [Example V-06]
- LogP [1]: 4.65^[a]

SMILES: Fc1ccc(C2(C3(Oc4c(Cl)cc(Cl)cc4Cl)CC3)CO2)c(F)c1 (racemic) [Example V-07]
- LogP [1]: 5.56^[a]

SMILES: Fc1ccc(C2(C3(Oc4c(Cl)cc(Br)cc4Cl)CC3)CO2)c(F)c1 (racemic) [Example V-08]
- LogP [1]: 5.72^[a]

SMILES: Fc1ccc(C2(C3(Oc4c(Cl)ccc(Cl)c4Cl)CC3)CO2)c(F)c1 (racemic) [Example V-09]
- LogP [1]: 5.27^[a]

SMILES: Fc1ccc(C2(C3(Oc4c(F)ccc(F)c4F)CC3)CO2)c(F)c1 (racemic) [Example V-10]
- LogP [1]: 4.20^[a]

SMILES: Fc1ccc(C2(C3(Oc4c(Cl)cc(C(F)(F)F)cc4Cl)CC3)CO2)c(F)c1 (racemic) [Example V-11]
- LogP [1]: 5.51^[a]

SMILES: OC(Cn1cncn1)(c1ccc(F)cc1F)C1(Oc2c(F)cc(Cl)cc2F)CC1 (single isomer, unassigned) [Example I-19]
- LogP [1]: 3.55^[a]

SMILES: OC(Cn1cncn1)(c1ccc(F)cc1F)C1(Oc2c(F)cc(Cl)cc2F)CC1 (single isomer, unassigned) [Example I-20]
- LogP [1]: 3.55^[a]

SMILES: OC(Cn1cncn1)(c1ccc(F)cc1F)C1(Oc2c(F)cc(Br)cc2F)CC1 (single isomer, unassigned) [Example I-21]
- LogP [1]: 3.63^[a]

SMILES: OC(Cn1cncn1)(c1ccc(F)cc1F)C1(Oc2c(F)cc(Br)cc2F)CC1 (single isomer, unassigned) [Example I-22]
- LogP [1]: 3.63^[a]

SMILES: OC(Cn1cncn1)(c1ccc(F)cc1F)C1(Oc2c(F)cc(F)cc2F)CC1 (stereo not drawn) [Example I-02, 1-(2,4-difluorophenyl)-2-(1H-1,2,4-triazol-1-yl)-1-[1-(2,4,6-trifluorophenoxy)cyclopropyl]ethanol]
- LogP: 3.10^[b]
- chromatographic logP (LogP): 3.11

SMILES: CC(=O)OC(Cn1cncn1)(c1ccc(F)cc1F)C1(Oc2c(F)cc(F)cc2F)CC1 (stereo not drawn) [Example I-04, 1-(2,4-difluorophenyl)-2-(1H-1,2,4-triazol-1-yl)-1-[1-(2,4,6-trifluorophenoxy)cyclopropyl]ethyl acetate]
- LogP: 3.29^[b]
- chromatographic logP (LogP): 3.32

SMILES: Fc1ccc(C2(C3(Oc4c(F)cc(F)cc4F)CC3)CO2)c(F)c1 (stereo not drawn) [Example V-01, 2-(2,4-difluorophenyl)-2-[1-(2,4,6-trifluorophenoxy)cyclopropyl]oxirane]
- chromatographic logP [2]: 4.26
- chromatographic logP (reversed phase HPLC column, method [b]: LC-UV, neutral range, 0.001 molar ammonium acetate solution in water and acetonitrile as eluent, read-out: LogP): 4.26

SMILES: Fc1ccc(C2(C3(Oc4c(Cl)cc(F)cc4Cl)CC3)CO2)c(F)c1 (stereo not drawn) [Example V-12]
- LogP [1]: 4.98^[a]

SMILES: Fc1ccc(C2(C3(Oc4c(Cl)cc(SC(F)(F)F)cc4Cl)CC3)CO2)c(F)c1 (stereo not drawn) [Example V-13]
- LogP [1]: 6.07^[a]

SMILES: Fc1cc(Cl)ccc1C1(C2(Oc3c(F)cc(Cl)cc3F)CC2)CO1 (stereo not drawn) [Example V-14]
- LogP [1]: 5.23^[a]

SMILES: Fc1cc(F)c(OC2(C3(c4ccc(Cl)cc4F)CO3)CC2)c(F)c1 (stereo not drawn) [Example V-15]
- LogP [1]: 4.72^[a]

SMILES: Fc1ccc(C2(C3(Oc4ccc(F)c(F)c4F)CC3)CO2)c(F)c1 (stereo not drawn) [Example V-16]
- LogP [1]: 4.28^[a]

SMILES: Fc1ccc(C2(C3(Oc4cc(F)c(F)cc4F)CC3)CO2)c(F)c1 (stereo not drawn) [Example V-17]
- LogP [1]: 4.10^[a]

SMILES: Fc1ccc(C2(C3(Oc4cc(F)c(Br)c(F)c4)CC3)CO2)c(F)c1 (stereo not drawn) [Example V-18]
- LogP [1]: 4.86^[a]

SMILES: Fc1ccc(C2(C3(Oc4c(F)ccc(F)c4Cl)CC3)CO2)c(F)c1 (stereo not drawn) [Example V-19]
- LogP [1]: 4.35^[a]

SMILES: O=C(c1ccc(F)cc1F)C1(Oc2c(F)cc(F)cc2F)CC1 [IV-1, (2,4-difluorophenyl)[1-(2,4,6-trifluorophenoxy)cyclopropyl]methanone]
- chromatographic logP [2]: 3.96

SMILES: O=C(c1ccc(F)cc1F)C1(Oc2c(F)cc(Cl)cc2F)CC1 [IV-2]
- LogP [1]: 4.44^[a]

SMILES: O=C(c1ccc(F)cc1F)C1(Oc2c(F)cc(Br)cc2F)CC1 [IV-3]
- LogP [1]: 4.54^[a]

SMILES: O=C(c1ccc(F)cc1F)C1(Oc2c(Cl)cc(Cl)cc2Cl)CC1 [IV-4]
- LogP [1]: 5.34^[a]

SMILES: O=C(c1ccc(F)cc1F)C1(Oc2c(Cl)cc(F)cc2Cl)CC1 [IV-5]
- LogP [1]: 4.76^[a]

SMILES: O=C(c1ccc(F)cc1F)C1(Oc2c(F)ccc(F)c2F)CC1 [IV-6]
- LogP [1]: 3.99^[a]

SMILES: O=C(c1ccc(F)cc1F)C1(Oc2c(Cl)cc(Br)cc2Cl)CC1 [IV-7]
- LogP [1]: 5.01^[a]

SMILES: O=C(c1ccc(F)cc1F)C1(Oc2c(Cl)ccc(Cl)c2Cl)CC1 [IV-8]
- LogP [1]: 5.03^[a]

SMILES: O=C(c1ccc(F)cc1F)C1(Oc2c(F)ccc(Cl)c2F)CC1 [IV-9]
- LogP [1]: 4.27^[a]

SMILES: O=C(c1ccc(F)cc1F)C1(Oc2cc(F)c(F)c(F)c2)CC1 [IV-10]
- LogP [1]: 4.20^[a]

SMILES: O=C(c1ccc(F)cc1F)C1(Oc2c(Cl)cc(C(F)(F)F)cc2Cl)CC1 [IV-11]
- LogP [1]: 5.25^[a]

SMILES: O=C(c1ccc(F)cc1F)C1(Oc2c(Cl)cc(OC(F)(F)F)cc2Cl)CC1 [IV-12]
- LogP [1]: 5.39^[a]

SMILES: O=C(c1ccc(F)cc1F)C1(Oc2c(Cl)cc(SC(F)(F)F)cc2Cl)CC1 [IV-13]
- LogP [1]: 5.85^[a]

SMILES: N#Cc1cc(Cl)c(OC2(C(=O)c3ccc(F)cc3F)CC2)c(Cl)c1 [IV-14]
- LogP [1]: 4.15^[a]

SMILES: O=C(c1ccc(Cl)cc1F)C1(Oc2c(F)cc(F)cc2F)CC1 [IV-15]
- LogP [1]: 4.49^[a]

SMILES: O=C(c1ccc(Cl)cc1F)C1(Oc2c(F)cc(Cl)cc2F)CC1 [IV-16]
- LogP [1]: 5.03^[a]

SMILES: O=C(c1ccc(F)cc1F)C1(Oc2ccc(F)c(F)c2F)CC1 [IV-17]
- LogP [1]: 4.01^[a]

SMILES: O=C(c1ccc(F)cc1F)C1(Oc2cc(F)c(F)cc2F)CC1 [IV-18]
- LogP [1]: 3.94^[a]

SMILES: O=C(c1ccc(F)cc1F)C1(Oc2cc(F)c(Br)c(F)c2)CC1 [IV-19]
- LogP [1]: 4.54^[a]

SMILES: O=C(c1ccc(F)cc1F)C1(Oc2c(F)ccc(F)c2Cl)CC1 [IV-20]
- LogP [1]: 4.25^[a]

SMILES: O=C(c1ccc(Cl)cc1F)C1(Oc2c(F)cc(Br)cc2F)CC1 [IV-21]
- LogP [1]: 5.05^[a]

Reference: patent US20180057467A1, “NOVEL TRIAZOLE DERIVATIVES” (BAYER CROPSCIENCE AKTIENGESELLSCHAFT, priority 2015, published 2018)
